In PubChem BioAssay AID651601 (Sanford-Burnham Center for Chemical Genomics, 2012):

Columns and labels:
Test in all cases: antagonist selectivity across CCR6, CXCR5 and CXCR6 – cell-based, CHO-K1 PathHunter beta-arrestin, luminescence, selectivity assay for CXCR6 antagonist project, profiling panel (AID 651601)
Conditions in all cases: antagonist mode
[1] = target: C-X-C chemokine receptor type 5 (Homo sapiens) (UniProt P32302)
[2] = target: C-X-C chemokine receptor type 6 (Homo sapiens) (UniProt O00574)
Sequence of C-X-C chemokine receptor type 6 (Homo sapiens) (O00574 whole entry, looked up): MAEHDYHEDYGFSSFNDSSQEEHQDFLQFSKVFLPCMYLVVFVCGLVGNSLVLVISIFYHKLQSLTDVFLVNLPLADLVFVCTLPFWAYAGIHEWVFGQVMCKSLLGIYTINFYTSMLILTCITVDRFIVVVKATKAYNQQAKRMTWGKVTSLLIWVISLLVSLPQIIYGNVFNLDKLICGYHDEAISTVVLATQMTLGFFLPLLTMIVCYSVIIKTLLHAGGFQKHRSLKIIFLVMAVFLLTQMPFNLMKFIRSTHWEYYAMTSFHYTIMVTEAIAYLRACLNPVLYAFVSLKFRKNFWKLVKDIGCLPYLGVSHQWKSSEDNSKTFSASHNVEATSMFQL

[3] = target: C-C chemokine receptor type 6 (Homo sapiens) (UniProt P51684)
Sequence of C-C chemokine receptor type 6 (Homo sapiens) (P51684 whole entry, looked up): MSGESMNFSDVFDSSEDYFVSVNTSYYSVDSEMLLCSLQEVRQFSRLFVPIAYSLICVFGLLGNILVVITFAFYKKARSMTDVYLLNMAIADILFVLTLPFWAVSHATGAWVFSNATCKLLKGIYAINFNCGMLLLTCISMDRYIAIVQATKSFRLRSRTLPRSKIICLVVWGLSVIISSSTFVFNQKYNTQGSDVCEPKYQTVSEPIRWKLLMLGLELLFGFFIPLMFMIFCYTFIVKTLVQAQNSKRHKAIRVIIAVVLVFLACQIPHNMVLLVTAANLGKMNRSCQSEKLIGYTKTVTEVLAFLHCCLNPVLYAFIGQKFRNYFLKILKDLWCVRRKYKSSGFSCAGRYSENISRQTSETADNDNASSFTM

[4] = CXCR5, mean of runs, mean IC50 across replicates
[5] = CXCR6, mean of runs, mean IC50 across replicates
[6] = CCR6, mean of runs, mean IC50 across replicates

Sequence of C-X-C chemokine receptor type 5 (Homo sapiens) (P32302 whole entry, looked up): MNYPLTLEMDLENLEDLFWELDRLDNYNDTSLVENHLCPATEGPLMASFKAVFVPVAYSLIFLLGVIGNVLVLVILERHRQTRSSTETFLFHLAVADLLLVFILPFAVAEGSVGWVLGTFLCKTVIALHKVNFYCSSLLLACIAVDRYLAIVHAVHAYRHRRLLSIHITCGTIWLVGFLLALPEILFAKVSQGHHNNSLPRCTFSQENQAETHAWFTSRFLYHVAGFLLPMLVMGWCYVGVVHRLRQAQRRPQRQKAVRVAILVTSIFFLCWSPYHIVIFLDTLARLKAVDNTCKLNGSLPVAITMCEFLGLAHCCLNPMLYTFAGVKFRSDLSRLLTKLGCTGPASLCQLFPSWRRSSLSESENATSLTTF

| SMILES | IC50 [1, 4] | IC50 ([1]; CXCR5, run 1) | IC50 ([1]; CXCR5, run 2) | IC50 [2, 5] | IC50 ([2]; CXCR6, run 1) | IC50 ([2]; CXCR6, run 2) | IC50 ([2]; CXCR6, run 3) | IC50 ([2]; CXCR6, run 4) | IC50 [3, 6] | IC50 ([3]; CCR6, run 1) | IC50 ([3]; CCR6, run 2) | IC50 ([3]; CCR6, run 3) | IC50 ([3]; CCR6, run 4) |
| --- | --- | --- | --- | --- | --- | --- | --- | --- | --- | --- | --- | --- | --- |
| O=C(CN1C2CCCC1CC(NC(=O)c1ccccc1)C2)Nc1ccccc1C(F)(F)F (stereo not drawn) | > 66.6 µM | > 66.6 µM | > 66.6 µM | > 80 µM | > 80 µM | > 80 µM | > 80 µM | > 80 µM | > 80 µM | > 80 µM | > 80 µM | > 80 µM | > 80 µM |
| CN(C)c1ccc(NC(=O)CN2C3CCCC2CC(NC(=O)c2ccccc2)C3)cc1 (stereo not drawn) | > 66.6 µM | > 66.6 µM | > 66.6 µM | > 80 µM | > 80 µM | > 80 µM | > 80 µM | > 80 µM | > 80 µM | > 80 µM | > 80 µM | > 80 µM | > 80 µM |
| COc1cccc(C(=O)NC2CC3CCCC(C2)N3CC(=O)Nc2ccc(N(C)C)cc2)c1 (stereo not drawn) | > 66.6 µM | > 66.6 µM | > 66.6 µM | > 80 µM | > 80 µM | > 80 µM | > 80 µM | > 80 µM | > 80 µM | > 80 µM | > 80 µM | > 80 µM | > 80 µM |
| O=C(CN1C2CCCC1CC(NC(=O)c1ccccc1)C2)Nc1ccccc1 (stereo not drawn) | > 66.6 µM | > 66.6 µM | > 66.6 µM | > 80 µM | > 80 µM | > 80 µM | > 80 µM | > 80 µM | > 80 µM | > 80 µM | > 80 µM | > 80 µM | > 80 µM |
| COc1cccc(C(=O)NC2CC3CCCC(C2)N3CC(=O)Nc2ccccc2C(F)(F)F)c1 (stereo not drawn) | > 66.6 µM | > 66.6 µM | > 66.6 µM | > 80 µM | > 80 µM | > 80 µM | > 80 µM | > 80 µM | > 80 µM | > 80 µM | > 80 µM | > 80 µM | > 80 µM |
| COc1cc(C(=O)NC2CC3CCCC(C2)N3CC(=O)Nc2ccccc2)cc(OC)c1OC (stereo not drawn) | > 66.6 µM | > 66.6 µM | > 66.6 µM | 14.3 µM | 4.79 µM | 5.96 µM | 5.86 µM | 40.6 µM | > 80 µM | > 80 µM | > 80 µM | > 80 µM | > 80 µM |
